*1 amine or outer side, *2 acyl side, *3 side chain or, on linkers, in order; H or OH if unused. Where a SMILES comes first, the peptide text is derived from it. Bridges are numbered along the chain shown (N, C = ends). [ ]: non-standard residue; d: D form. NHCH2CMe2S = CC(C)(CN[*:1])S[*:2]
Legend:
[1] = biological target: T1, bovine pancreatic trypsin (Bos taurus, UniProt P00760); assay: Trypsin stability assay (Table 10); assay type: in vitro ADME; settings: bovine pancreatic trypsin solution; bovine pancreatic trypsin 2.5 μg/mL, 37° C., One Phase Decay; read-out: Stability (t1/2, mins) Trypsin
T1 construct: from tissue; host or cells: bovine pancreas
T1 sequence (P00760 24-246): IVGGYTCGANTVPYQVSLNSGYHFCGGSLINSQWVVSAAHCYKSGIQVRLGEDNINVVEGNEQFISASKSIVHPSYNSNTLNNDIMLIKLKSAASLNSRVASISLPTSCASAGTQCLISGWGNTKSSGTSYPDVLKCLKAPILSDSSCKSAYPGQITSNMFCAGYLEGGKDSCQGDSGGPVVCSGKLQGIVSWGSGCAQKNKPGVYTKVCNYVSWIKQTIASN
Excerpt: (§1) FIG. 20 is a series of graphs showing the stability of selected peptides in a trypsin (left-hand graphs) and plasma (right-hand graphs) stability assay (data normalised to concentration of each peptide at t=0, determined by LCMS, within each substrate; data analysed using One Phase Decay nonlinear regression in Prism software and each experiment performed in triplicate; mean+/−SEM);
Plasma was collected in house from adult mixed-gender Wistar rats, prepared using 2% EDTA as per standard practice. Peptides were added to rat plasma samples at 37° C. (in a water bath) with final concentrations of 100 uM (1:9 peptide in water:plasma) and a 50 μL sample was immediately taken and precipitated in 150 μL cold acetonitrile (9:1 ACN:water). This sample became the baseline, or t=0 min sample. […] At each time point, the 50 μL of plasma collected was immediately added to cold ACN. Each collected plasma sample in ACN was directly vortexed for 30 seconds and then centrifuged at room temperature (13K rpm, 5 min). 150 μL of the supernatant was taken and directly placed in glass HPLC vials for LCMS analysis.
The protocol for the trypsin stability assay was very similar to the plasma stability assay discussed above. The only difference was the use of a trypsin solution (bovine pancreatic trypsin 2.5 μg/mL in NH4HCO3 buffer, pH approx. 8-8.5, 37° C.) instead of rat plasma. Volumes, times and preparation protocols were exactly as mentioned above.

[2] = Plasma stability assay (Table 10); assay type: in vitro ADME; settings: both sexes, Wistar, rat plasma (EDTA), 37° C., 100 uM peptide, One Phase Decay, read-out: Stability (t1/2, mins) Plasma
Excerpt: as §1
The results shown in Table 10 utilized rat plasma. • Note that DP-7-11 and CP5 represent the same compound, and DP-7-12 and CP6 are the same compound. In this regard, a different regression analysis method was adopted on the above cAMP experiments. Particularly, a new non-linear regression (four-parameter) was adopted to better account for hill slope, thereby improving the regression fit.
Plasma was collected in house from adult mixed-gender Wistar rats, prepared using 2% EDTA as per standard practice. Peptides were added to rat plasma samples at 37° C. (in a water bath) with final concentrations of 100 uM (1:9 peptide in water:plasma) and a 50 μL sample was immediately taken and precipitated in 150 μL cold acetonitrile (9:1 ACN:water). This sample became the baseline, or t=0 min sample. Plasma with peptide was immediately returned to the water bath and subsequent 50 μL samples were taken at 5, 10, 15, 30, 60 and 120 min. At each time point, the 50 μL of plasma collected was immediately added to cold ACN. Each collected plasma sample in ACN was directly vortexed for 30 seconds and then centrifuged at room temperature (13K rpm, 5 min). 150 μL of the supernatant was taken and directly placed in glass HPLC vials for LCMS analysis.

[3] = Stability in cAMP buffer; assay type: physicochemical; settings: over 60 minutes
Excerpt: Select compounds were also screened for stability in cAMP buffer, to assess whether they degrade spontaneously in the cell assay environment, in the absence of cellular metabolic processes.

[4] = biological target: DOP (Homo sapiens, UniProt P41143); assay: In vitro cAMP activity at DOP (Table 10); assay type: cell-based; settings: cAMP inhibition, four-parameter regression
DOP, sequence (P41143 whole entry): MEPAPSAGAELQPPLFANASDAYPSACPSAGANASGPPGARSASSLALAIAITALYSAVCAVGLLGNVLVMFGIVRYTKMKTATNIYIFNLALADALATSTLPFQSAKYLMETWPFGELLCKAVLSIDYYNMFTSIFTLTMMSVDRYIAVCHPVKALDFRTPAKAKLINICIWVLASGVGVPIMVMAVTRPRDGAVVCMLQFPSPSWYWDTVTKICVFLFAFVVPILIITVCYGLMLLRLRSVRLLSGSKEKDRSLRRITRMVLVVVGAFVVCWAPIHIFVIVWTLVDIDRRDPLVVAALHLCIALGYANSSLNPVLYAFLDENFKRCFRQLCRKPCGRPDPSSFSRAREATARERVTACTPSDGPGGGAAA
Method: The CP series compounds were assayed as follows: The assay was performed using a 96 well ½ area plate. The different cAMP standard solutions (3 μL/well) were plated in duplicate. The different concentrations of drug (3 μL/well), and control solutions (3 μL/well) were plated in triplicate. Following this, the acceptor bead mixture (3 μL/well) was added to the respective sets—either cAMP standard curve or the treatment. This was covered and incubated on the orbital shaker for 60 minutes at 37° C. Then, the donor bead mixture (10 μL/well) was added to each well. This was incubated at room temperature overnight on the orbital shaker.
For DP-11-06 the assay was carried out in the same way as for the CP compounds except it was incubated for 30 mins at 37° C.
For the CP series compounds and DP-11-06, the Ensight® Multimode Plate Reader was used to quantify the fluorescence units of each plate. Before reading, each plate was centrifuged at 280 g for 30 seconds. Using GraphPad Prism7® Software, cAMP concentrations were determined by fit spline/LOWESS analysis. The cAMP standard curve was used for interpolation at this point. The cAMP concentrations were then normalized to the highest cAMP concentration recorded and analyzed by one-way ANOVA for multiple comparisons. The IC50 for each compound was then calculated using GraphPad Prism7® with non-linear regression analysis using four parameter curve fitting.
In this regard, a different regression analysis method was adopted on the above cAMP experiments. Particularly, a new non-linear regression (four-parameter) was adopted to better account for hill slope, thereby improving the regression fit.

| Compound | half-life [1] [min] | half-life at 100 uM [2] [min] | Degradation in cAMP assay buffer [3] | EC50 [4] [nM] |
| --- | --- | --- | --- | --- |
| CC1(C)CNC(=O)C[C@@H](NC(=O)[C@@H](N)Cc2ccc(O)cc2)C(=O)NCC(=O)N[C@@H](Cc2ccccc2)C(=O)N[C@H](C(=O)N[C@@H](CCCNC(=N)N)C(=O)N[C@@H](CCCNC(=N)N)C(N)=O)CSS1 [DP-7-12, c(Tyr-D(Asp)-Gly-Phe-SSa-Arg-Arg)] (H-Y[dD]GFCRR-NH2; linker 2-5 via NHCH2CMe2S) | < 0.01 | 206 | no degradation | – |
| CC1(C)CNC(=O)C[C@H](C(=O)N[C@@H](CCCNC(=N)N)C(=O)N[C@@H](CCCNC(=N)N)C(N)=O)NC(=O)[C@H](Cc2ccccc2)NC(=O)CNC(=O)[C@@H](NC(=O)[C@@H](N)Cc2ccc(O)cc2)CSS1 [DP-7-11, c(Tyr-SSa-Gly-Phe-D(Asp)-Arg-Arg)] | – | – | – | > 10000 |

Source: patent publication US20220089646A1 (THE UNIVERSITY OF QUEENSLAND, priority 2019, published 2022)
